From US20090326003A1, “PYRAZOLO (3, 4-B) PYRIDINE DERIVATIVES AS PDE4 INHIBITORS” (priority 2006, published 2009) come the findings set out here.

The target of this assay is T1, PDE4B (human recombinant) (Homo sapiens, UniProt Q07343).
T1 construct: made in house
T1 sequence (Q07343 1-564 isoform Q07343-2): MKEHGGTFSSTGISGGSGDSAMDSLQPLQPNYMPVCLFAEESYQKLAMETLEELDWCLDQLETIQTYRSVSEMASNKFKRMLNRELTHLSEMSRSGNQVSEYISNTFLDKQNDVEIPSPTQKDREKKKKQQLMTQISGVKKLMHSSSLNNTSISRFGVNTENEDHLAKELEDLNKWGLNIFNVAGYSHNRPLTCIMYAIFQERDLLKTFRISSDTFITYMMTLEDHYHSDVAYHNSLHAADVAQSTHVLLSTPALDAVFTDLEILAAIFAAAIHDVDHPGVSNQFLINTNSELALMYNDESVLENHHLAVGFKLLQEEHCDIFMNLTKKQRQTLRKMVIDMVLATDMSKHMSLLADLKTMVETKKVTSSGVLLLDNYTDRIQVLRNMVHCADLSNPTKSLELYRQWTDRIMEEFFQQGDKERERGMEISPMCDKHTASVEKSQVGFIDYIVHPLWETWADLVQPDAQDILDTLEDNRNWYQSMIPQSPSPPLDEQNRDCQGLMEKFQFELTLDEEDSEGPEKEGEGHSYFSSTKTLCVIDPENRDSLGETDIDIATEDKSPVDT
Nature of the assay: PDE4B inhibition, fluorescence polarisation (FP) and/or SPA assay. To be noted: n=1 or average of 2 or more readings, accuracy ±about 0.5 log unit, read-out: PDE4B pIC50 (generally in FP assay) (±about 0.5) (converted). It counts as biochemical. The procedure, abridged:
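Human recombinant PDE4B (yeast-expressed, HSPDE4B2B variant) preincubated with compound 10-30 min at ambient temperature; SPA with ~10 nM [3H]cAMP, 1 h, Tris-HCl pH 7.5, ≤20% hydrolysis; or IMAP FP with ~40 nM fluorescein-cAMP, Tris-HCl pH 7.2. pIC50 from 10-point curves (1.5 nM-30 uM).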
A general note: Polarisation of emitted light reports the rotation of a fluorescent probe.
With `CCn1ncc2c(NC3CCOCC3)c(CNC(=O)c3cccc(-c4cccc(C(=O)NCc5c(C)nc6c(cnn6CC)c5NC5CCOCC5)c4)c3)c(C)nc21` [Example 29, N,N′-bis{[1-ethyl-6-methyl-4-(tetrahydro-2H-pyran-4-ylamino)-1H-pyrazolo[3,4-b]pyridin-5-yl]methyl}-3,3′-biphenyldicarboxamide], the IC50 is roughly 0.1 nM.

Regarding `CCc1nc2c(cnn2CC)c(NC2CCOCC2)c1CNC(=O)c1ccc(C(=O)NCc2c(CC)nc3c(cnn3CC)c2NC2CCOCC2)o1` [Example 35, N,N′-bis{[1,6-diethyl-4-(tetrahydro-2H-pyran-4-ylamino)-1H-pyrazolo[3,4-b]pyridin-5-yl]methyl}-2,5furandicarboxamide], the IC50 is roughly 0.0398 nM. The result for `CCc1nc2c(cnn2CC)c(NC2CCOCC2)c1CNC(=O)c1ccc(-c2ccc(C(=O)NCc3c(CC)nc4c(cnn4CC)c3NC3CCOCC3)cc2)cc1` [Example 23, N,N′-bis{[1,6-diethyl-4-(tetrahydro-2H-pyran-4-ylamino)-1H-pyrazolo[3,4-b]pyridin-5-yl]methyl}-4,4′-biphenyldicarboxamide] reads roughly 0.158 nM.
